In ChEMBL document CHEMBL1201861, “Genomics of Drug Sensitity in Cancer screening data, Wellcome Trust Sanger Institute”:

Assays:
[1] = test system: COR-L279; test: SANGER: Inhibition of human COR-L279 cell growth in a cell viability assay.; assay type: functional, cell-based
[2] = test system: Calu-1; test: SANGER: Inhibition of human Calu-1 cell growth in a cell viability assay.; assay type: functional, cell-based
[3] = test system: Caov-3 cell line; test: cells; assay type: functional, cell-based; settings: Homo sapiens;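 also: cell growth inhibition read out by a viability assay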
Description: SANGER: Inhibition of human Caov-3 cell growth in a cell viability assay.

[4] = test system: DG-75; test: cells; assay type: functional, cell-based; settings: Homo sapiens;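 also: growth inhibition of DG-75 cells, read out with a cell viability assay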
Description: SANGER: Inhibition of human DG-75 cell growth in a cell viability assay.

[5] = test system: DMS-53; test: cells; assay type: functional, cell-based, Homo sapiens; settings: Homo sapiens, DMS-53;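 also: cell viability assay measuring growth inhibition of human DMS-53 cells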
Description: SANGER: Inhibition of human DMS-53 cell growth in a cell viability assay.

[6] = test system: DV-90; test: cells; assay type: functional, cell-based; settings: Homo sapiens;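 also: Read-out is a viability assay, with IC50 reflecting the drop in DV-90 cell growth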
Description: SANGER: Inhibition of human DV-90 cell growth in a cell viability assay.

[7] = test system: EB-3; test: cells; assay type: functional, cell-based; settings: Homo sapiens;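 also: human EB-3 cells, growth inhibition read out via a cell viability assay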
Description: SANGER: Inhibition of human EB-3 cell growth in a cell viability assay.

[8] = test system: EFE-184; test: cells; assay type: functional, cell-based; settings: Homo sapiens
Description: SANGER: Inhibition of human EFE-184 cell growth in a cell viability assay.

[9] = test system: EW-7; test: SANGER: Inhibition of human EW-7 cell growth in a cell viability assay.; assay type: functional, cell-based; settings: Homo sapiens, EW-7
[10] = test system: HSC-4; test: cells; assay type: functional, cell-based, Homo sapiens; settings: Homo sapiens, HSC-4;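 also: growth inhibition of human HSC-4 cells, read out with a cell viability assay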
Description: SANGER: Inhibition of human HSC-4 cell growth in a cell viability assay.

[11] = test system: IPC-298; test: SANGER: Inhibition of human IPC-298 cell growth in a cell viability assay.; assay type: functional, cell-based
[12] = test system: IST-SL2; test: cells; assay type: functional, cell-based; settings: Homo sapiens;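 also: growth inhibition of human IST-SL2 cells, read out by a cell viability assay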
Description: SANGER: Inhibition of human IST-SL2 cell growth in a cell viability assay.

[13] = test system: LB647-SCLC; test: cells; assay type: functional, cell-based; settings: Homo sapiens;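 also: cell growth inhibition, read out by a viability assay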
Description: SANGER: Inhibition of human LB647-SCLC cell growth in a cell viability assay.

[14] = test system: LC4-1; test: cells; assay type: functional, cell-based; settings: Homo sapiens;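 also: growth inhibition of LC4-1 cells, read out with a cell viability assay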
Description: SANGER: Inhibition of human LC4-1 cell growth in a cell viability assay.

[15] = test system: LOUCY; test: cells; assay type: functional, cell-based; settings: Homo sapiens;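 also: growth inhibition of human LOUCY cells, read out with a cell viability assay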
Description: SANGER: Inhibition of human LOUCY cell growth in a cell viability assay.

[16] = test system: MC-CAR; test: cells; assay type: functional, cell-based; settings: Homo sapiens;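 also: growth inhibition of the human MC-CAR cell line, read out by a cell viability assay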
Description: SANGER: Inhibition of human MC-CAR cell growth in a cell viability assay.

[17] = test system: MDA-MB-134-VI; test: cells; assay type: functional, cell-based; settings: Homo sapiens
Description: SANGER: Inhibition of human MDA-MB-134-VI cell growth in a cell viability assay.

[18] = test system: MDA-MB-468; test: cells; assay type: functional, cell-based; settings: Homo sapiens
Description: SANGER: Inhibition of human MDA-MB-468 cell growth in a cell viability assay.

[19] = test system: MES-SA; test: cells; assay type: functional, cell-based, Homo sapiens; settings: Homo sapiens, MES-SA;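 also: growth inhibition of human MES-SA cells, read out with a cell viability assay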
Description: SANGER: Inhibition of human MES-SA cell growth in a cell viability assay.

[20] = test system: MFE-296; test: SANGER: Inhibition of human MFE-296 cell growth in a cell viability assay.; assay type: functional, cell-based
[21] = test system: NCI-H1618; test: cells; assay type: functional, cell-based; settings: Homo sapiens;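 also: growth inhibition of human NCI-H1618 cells, measured by a cell viability assay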
Description: SANGER: Inhibition of human NCI-H1618 cell growth in a cell viability assay.

[22] = test system: NCI-H1734; test: cells; assay type: functional, cell-based; settings: Homo sapiens;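 also: growth inhibition of human NCI-H1734 cells, read out with a cell viability assay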
Description: SANGER: Inhibition of human NCI-H1734 cell growth in a cell viability assay.

[23] = test system: NCI-H2009; test: cells; assay type: functional, cell-based, Homo sapiens; settings: Homo sapiens, NCI-H2009;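 also: cell viability assay measuring inhibition of NCI-H2009 cell growth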
Description: SANGER: Inhibition of human NCI-H2009 cell growth in a cell viability assay.

[24] = test system: NCI-H2171; test: cells; assay type: functional, cell-based; settings: Homo sapiens;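 also: growth inhibition of human NCI-H2171 cells, read out by a cell viability assay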
Description: SANGER: Inhibition of human NCI-H2171 cell growth in a cell viability assay.

[25] = test system: NCI-H322M; test: cells; assay type: functional, cell-based; settings: Homo sapiens;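 also: cell viability assay measuring inhibition of growth of human NCI-H322M cells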
Description: SANGER: Inhibition of human NCI-H322M cell growth in a cell viability assay.

[26] = test system: NCI-H64; test: cells; assay type: functional, cell-based; settings: Homo sapiens;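 also: growth inhibition of NCI-H64 cells, read out with a cell viability assay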
Description: SANGER: Inhibition of human NCI-H64 cell growth in a cell viability assay.

[27] = test system: NCI-H838; test: cells; assay type: functional, cell-based; settings: Homo sapiens;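 also: growth inhibition of human NCI-H838 cells, read out by a cell viability assay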
Description: SANGER: Inhibition of human NCI-H838 cell growth in a cell viability assay.

[28] = test system: NCI-H889; test: cells; assay type: functional, cell-based; settings: Homo sapiens;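 also: cell growth inhibition of the cell line, read out with a viability assay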
Description: SANGER: Inhibition of human NCI-H889 cell growth in a cell viability assay.

[29] = test system: SNU-16; test: cells; assay type: functional, cell-based; settings: Homo sapiens;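 also: growth inhibition of human SNU-16 cells, determined with a cell viability readout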
Description: SANGER: Inhibition of human NCI-SNU-16 cell growth in a cell viability assay.

[30] = test system: PLC-PRF-5; test: cells; assay type: functional, cell-based; settings: Homo sapiens;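 also: growth inhibition of human PLC-PRF-5 cells, read out with a viability assay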
Description: SANGER: Inhibition of human PLC-PRF-5 cell growth in a cell viability assay.

[31] = test system: RT-4; test: SANGER: Inhibition of human RT4 cell growth in a cell viability assay.; assay type: functional, cell-based; settings: Homo sapiens, RT-4
[32] = test system: SCC-3; test: cells; assay type: functional, cell-based; settings: Homo sapiens;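 also: cell viability assay measuring inhibition of SCC-3 cell growth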
Description: SANGER: Inhibition of human SCC-3 cell growth in a cell viability assay.

[33] = test system: SIG-M5; test: cells; assay type: functional, cell-based; settings: Homo sapiens;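 also: cell viability assay read-out, measuring how strongly growth of cultured human SIG-M5 cells is inhibited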
Description: SANGER: Inhibition of human SIG-M5 cell growth in a cell viability assay.

[34] = test system: SIMA; test: cells; assay type: functional, cell-based, Homo sapiens; settings: Homo sapiens, SIMA;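 also: growth inhibition of SIMA cells, measured with a cell viability readout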
Description: SANGER: Inhibition of human SIMA cell growth in a cell viability assay.

[35] = test system: SJRH30; test: cells; assay type: functional, cell-based; settings: Homo sapiens;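 also: growth inhibition of human SJRH30 cells, read out with a cell viability assay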
Description: SANGER: Inhibition of human SJRH30 cell growth in a cell viability assay.

[36] = test system: SK-CO-1; test: cells; assay type: functional, cell-based; settings: Homo sapiens;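 also: growth inhibition of SK-CO-1 cells, determined by a viability readout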
Description: SANGER: Inhibition of human SK-CO-1 cell growth in a cell viability assay.

[37] = test system: SNG-M; test: cells; assay type: functional, cell-based; settings: Homo sapiens
Description: SANGER: Inhibition of human SNG-M cell growth in a cell viability assay.

[38] = test system: SR; test: cells; assay type: functional, cell-based; settings: Homo sapiens
Description: SANGER: Inhibition of human SR cell growth in a cell viability assay.

[39] = test system: ST486; test: SANGER: Inhibition of human ST486 cell growth in a cell viability assay.; assay type: functional, cell-based
[40] = test system: BC1 cell line; test: SANGER: Inhibition of human BC-1 cell growth in a cell viability assay.; assay type: functional, cell-based
[41] = test system: BOKU; test: cells; assay type: functional, cell-based; settings: Homo sapiens;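 also: growth inhibition of the human BOKU cell line, read out by a cell viability assay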
Description: SANGER: Inhibition of human BOKU cell growth in a cell viability assay.

[42] = test system: C-4-II; test: SANGER: Inhibition of human C-4-II cell growth in a cell viability assay.; assay type: functional, cell-based
[43] = test system: CAL-148; test: cells; assay type: functional, cell-based; settings: Homo sapiens
Description: SANGER: Inhibition of human CAL-148 cell growth in a cell viability assay.

[44] = test system: TE-15; test: cells; assay type: functional, cell-based; settings: Homo sapiens;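 also: cell viability readout of growth inhibition in TE-15 cells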
Description: SANGER: Inhibition of human TE-15 cell growth in a cell viability assay.

[45] = test system: TT; test: cells; assay type: functional, cell-based; settings: Homo sapiens
Description: SANGER: Inhibition of human TT cell growth in a cell viability assay.

[46] = test system: TUR; test: cells; assay type: functional, cell-based; settings: Homo sapiens;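 also: growth inhibition of human TUR cells, read out with a cell viability assay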
Description: SANGER: Inhibition of human TUR cell growth in a cell viability assay.

[47] = test system: CCF-STTG1; test: cells; assay type: functional, cell-based; settings: Homo sapiens;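 also: growth inhibition of human CCF-STTG1 cells, determined with a cell viability read-out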
Description: SANGER: Inhibition of human CCF-STTG1 cell growth in a cell viability assay.

[48] = test system: CHP-126; test: cells; assay type: functional, cell-based; settings: Homo sapiens
Description: SANGER: Inhibition of human CHP-126 cell growth in a cell viability assay.

[49] = test system: COLO 205; test: cells; assay type: functional, cell-based; settings: Homo sapiens
Description: SANGER: Inhibition of human COLO-205 cell growth in a cell viability assay.

[50] = test system: D-423MG; test: cells; assay type: functional, cell-based; settings: Homo sapiens
Description: SANGER: Inhibition of human D-423MG cell growth in a cell viability assay.

[51] = test system: H-EMC-SS; test: cells; assay type: functional, cell-based; settings: Homo sapiens
Description: SANGER: Inhibition of human H-EMC-SS cell growth in a cell viability assay.

[52] = test system: LU-135; test: cells; assay type: functional, cell-based; settings: Homo sapiens
Description: SANGER: Inhibition of human LU-135 cell growth in a cell viability assay.

[53] = test system: NBsusSR; test: cells; assay type: functional, cell-based; settings: Homo sapiens;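 also: growth inhibition of the human cell line, read out with a cell viability assay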
Description: SANGER: Inhibition of human NBsusSR cell growth in a cell viability assay.

[54] = test system: NCI-H630; test: cells; assay type: functional, cell-based, Homo sapiens; settings: Homo sapiens, NCI-H630;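 also: growth inhibition of NCI-H630 cells, read out with a cell viability assay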
Description: SANGER: Inhibition of human NCI-H630 cell growth in a cell viability assay.

[55] = test system: BALL-1; test: cells; assay type: functional, cell-based; settings: Homo sapiens;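 also: growth inhibition of BALL-1 cells, read out with a cell viability assay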
Description: SANGER: Inhibition of human BALL-1 cell growth in a cell viability assay.

[56] = test system: NCI-H128; test: SANGER: Inhibition of human NCI-H128 cell growth in a cell viability assay.; assay type: functional, cell-based
[57] = test system: SKM-1; test: SANGER: Inhibition of human SKM-1 cell growth in a cell viability assay.; assay type: functional, cell-based

## C=CCc1cccc(/C=N/NC(=O)CN2CCN(Cc3ccccc3)CC2)c1O [PAC-1]
[1]
  IC50: > 2560 nM
[2]
  IC50: > 2560 nM
[3]
  IC50: > 2560 nM
[4]
  IC50: > 2560 nM
[5]
  IC50: > 2560 nM
[6]
  IC50: > 2560 nM
[7]
  IC50: > 2560 nM
[8]
  IC50: > 2560 nM
[9]
  IC50: > 2560 nM
[10]
  IC50: > 2560 nM
[11]
  IC50: > 2560 nM
[12]
  IC50: > 2560 nM
[13]
  IC50: > 2560 nM
[14]
  IC50: > 2560 nM
[15]
  IC50: 823 nM
[16]
  IC50: 1530 nM
[17]
  IC50: > 2560 nM
[18]
  IC50: > 2560 nM
[19]
  IC50: > 2560 nM
[20]
  IC50: > 2560 nM
[21]
  IC50: > 2560 nM
[22]
  IC50: > 2560 nM
[23]
  IC50: > 2560 nM
[24]
  IC50: > 2560 nM
[25]
  IC50: > 2560 nM
[26]
  IC50: > 2560 nM
[27]
  IC50: > 2560 nM
[28]
  IC50: > 2560 nM
[29]
  IC50: > 2560 nM
[30]
  IC50: > 2560 nM
[31]
  IC50: > 2560 nM
[32]
  IC50: > 2560 nM
[33]
  IC50: > 2560 nM
[34]
  IC50: > 2560 nM
[35]
  IC50: > 2560 nM
[36]
  IC50: > 2560 nM
[37]
  IC50: 1220 nM
[38]
  IC50: > 2560 nM
[39]
  IC50: 967 nM
[40]
  IC50: 1100 nM
[41]
  IC50: > 2560 nM
[42]
  IC50: > 2560 nM
[43]
  IC50: > 2560 nM
[44]
  IC50: > 2560 nM
[45]
  IC50: > 2560 nM
[46]
  IC50: > 2560 nM
[47]
  IC50: > 2560 nM
[48]
  IC50: 918 nM
[49]
  IC50: > 2560 nM

## Cn1cc(C2=C(c3ccc(Cl)cc3Cl)C(=O)NC2=O)c2ccccc21 [SB-216763]
[50]
  IC50: > 10000 nM
[51]
  IC50: > 10000 nM
[10]
  IC50: > 10000 nM
[52]
  IC50: > 10000 nM
[53]
  IC50: > 10000 nM
[23]
  IC50: > 10000 nM
[54]
  IC50: > 10000 nM
[35]
  IC50: > 10000 nM
[55]
  IC50: > 10000 nM

## CO[C@H]1C[C@@H]2CC[C@@H](C)[C@@](O)(O2)C(=O)C(=O)N2CCCC[C@H]2C(=O)O[C@H]([C@H](C)C[C@@H]2CC[C@@H](O)[C@H](OC)C2)CC(=O)[C@H](C)/C=C(\C)[C@@H](O)[C@@H](OC)C(=O)[C@H](C)C[C@H](C)/C=C/C=C/C=C/1C [SIROLIMUS]
[1]
  IC50: 87.3 nM
[4]
  IC50: > 100 nM
[7]
  IC50: 52.7 nM
[12]
  IC50: > 100 nM
[13]
  IC50: > 100 nM
[14]
  IC50: 86.7 nM
[15]
  IC50: > 100 nM
[16]
  IC50: > 100 nM
[17]
  IC50: 44 nM
[56]
  IC50: > 100 nM
[24]
  IC50: > 100 nM
[25]
  IC50: > 100 nM
[26]
  IC50: > 100 nM
[28]
  IC50: > 100 nM
[29]
  IC50: > 100 nM
[32]
  IC50: > 100 nM
[33]
  IC50: 17.2 nM
[34]
  IC50: > 100 nM
[57]
  IC50: > 100 nM
[38]
  IC50: 11.4 nM
[39]
  IC50: > 100 nM
[40]
  IC50: 31.3 nM
[41]
  IC50: > 100 nM
[43]
  IC50: > 100 nM
[44]
  IC50: 1.36 nM
[46]
  IC50: > 100 nM
[48]
  IC50: > 100 nM
